Ten compounds from patent US20250000870A1, “Pharmaceutical Combinations for Treating Cancer” (Cellestia Biotech AG, priority 2021, published 2025) can be followed below.

Holding throughout (type): cell-based, Human
Holding throughout (conditions): Drug 2 in combination with 6-(4-(tert-butyl)phenoxy)pyridin-3-amine (Drug 1), 72 hours

The test system of test [1] is HCC1187 triple negative breast cancer cells. Nature of the test: alamarBlue combination screening with 6-(4-(tert-butyl)phenoxy)pyridin-3-amine, ZIP synergy analysis. How it is done: (§1) The kinase inhibitors listed in table 1 were used in combination with 6-(4-(tert-butyl) phenoxy)pyridin-3-amine.
(§2) Cells were treated with a combination of 6-(4-(tert-butyl) phenoxy)pyridin-3-amine (concentration range from 150 nM to […]) and chemical compounds listed in table 1 (concentration range from 75 nM to 20 μM) for 72 hours. Concentration range used for each compound was determined based on individual IC50 values i.e concentration range selected flanks IC50 value of each compound. Each of the 8 compounds were combined with 6-(4-(tert-butyl) phenoxy)pyridin-3-amine at different concentrations generating an 8×10 matrix in duplicates, alamarBlue® readout was taken using Infinite® F500 (Tecan) plate reader. All volumes (cells and alamarBlue®) were dispensed using Multidrop Combi dispenser using a standard cassette (Speed MEDIUM).
(§3) Compound management and dispensing: All compounds were prepared as stock solution at 10 mM in pure DMSO. […] To create 384 well working plates, different volumes of stock solutions were plated into 384 well plates by using ECHO 550 acoustic dispenser (Labcyte) to generate the final concentration of interest for each drug, either alone or in matrix combination.
(§4) alamarBlue® viability assay: alamarBlue® proliferation assays were performed to determine the growth kinetics of compound treated cells, alamarBlue® consists of a cell permeable substrate resazurin. In metabolically active and proliferating cells, resazurin is converted to resorufin due to an intrinsic reducing power of live cells and produces a red fluorescence. Therefore, production of resorufin serves as an indicator of the viability of the cell population. Proliferation assays were performed by seeding 1500 cells/well in 384 well plate format. Cells were treated in duplicates with pre-determined concentration of compounds as a single agent or in combination with 6-(4-(tert-butyl) phenoxy)pyridin-3-amine for 72 hours. To determine growth kinetics, alamarBlue® (Invitrogen) was added to each well and incubated for 4 hours, alamarBlue® readout was taken using Infinite® F500 (Tecan) plate reader.
(§5) Data analysis for combination screening: Synergistic interaction analysis was performed using SynergyFinder software as described by Ianevski A, He L, Aittokallio T, Tang J. Bioinformatics. […] To mitigate the impact of edge-effects, correction was applied for all analyses. Regions of interest were defined as concentration combination showing both synergistic interaction and significant absolute activity (>60%).
In general terms: Alamar Blue is a resazurin reagent that responds to reducing activity.

Test [2] has as its system MCF-7 ER+ breast cancer cells. The test is described as above. Here is the method: as §1, §2, §3, §4, §5
In test [3] the test system is RPMI-8402 leukemic cells. Described as above. Here is the method: as §1, §2, §3, §4, §5
Test [4] deals with HCC1187 triple negative breast cancer cells. Nature of the test: PrestoBlue combination screening with 6-(4-(tert-butyl)phenoxy)pyridin-3-amine, ZIP synergy analysis. How it is done: (§6) Cell lines and drug combinations: Human T-ALL, AML and breast cancer cell lines RPMI-8402, MV-4-11 and HCC1187 were cultured under mycoplasma free conditions at 37° C. in RPMI-1640 media supplemented with 10% FCS (RPMI-8402 and HCC1187 cells) and IMDM media supplemented with 10% FCS (MV-4-11 cells). The kinase inhibitors listed in table 5 were used in combination with 6-(4-(tert-butyl) phenoxy)pyridin-3-amine.
(§7) 6-(4-(tert-butyl) phenoxy)pyridin-3-amine combination screening: Human cancer cells RPMI-8402, MV-4-11 and HCC1187 were seeded at a density of 10′000 cells/well in 96 well plate format and cultured in 100 μl of growth media. Cells were treated with a combination of 6-(4-(tert-butyl) phenoxy)pyridin-3-amine (concentration range from 30 nM to 100 μM) and chemical compounds listed in table 5 (concentration range from 1 μM to 100 μM) for 72 hours. Concentration range used for each compound was determined based on individual IC50 values i.e concentration range selected flanks IC50 value of each compound. Each of the 2 compounds were combined with 6-(4-(tert-butyl) phenoxy)pyridin-3-amine at different concentrations generating an 6×9 matrix in duplicates. PrestoBlue® readout was taken using Sense (Hidex) plate reader.
(§8) PrestoBlue® viability assay: PrestoBlue® proliferation assays were performed to determine the growth kinetics of compound treated cells. PrestoBlue® consists of a cell permeable substrate resazurin. In metabolically active and proliferating cells, resazurin is converted to resorufin due to an intrinsic reducing power of live cells and produces a red fluorescence. Therefore, production of resorufin serves as an indicator of the viability of the cell population. Proliferation assays were performed by seeding 10′000 cells/well in 96 well plate format. Cells were treated in triplicates (single agent) or duplicates (combinations) with pre-determined concentration of compounds as a single agent or in combination with 6-(4-(tert-butyl) phenoxy)pyridin-3-amine for 72 hours. To determine growth kinetics, PrestoBlue® (Invitrogen) was added to each well and incubated for 4 hours. PrestoBlue® readout was taken using Sense (Hidex) plate reader.
(§9) Data analysis for combination screening: Synergistic interaction analysis was performed using SynergyFinder software as described by Ianevski A, He L, Aittokallio T, Tang J. Bioinformatics. 2017 Aug. 1;33 (15): 2413-2415. doi: 10.1093/bioinformatics/btx162.SynergyFinder: a web application for analyzing drug combination dose-response matrix data). […] Regions of interest were defined as concentration combination showing both synergistic interaction and significant absolute activity (>60%).

The next test deals with MV-4-11 leukemic cells. The test is described as above. Here is the method:
as §6, §7, §8, §9

Test [5] relates to RPMI-8402 leukemic cells. The test is described as above. How it is done:
as §6, §7, §8, §9

Structures can show the parent of a compound that is named as a salt.

`CO[C@H]1C[C@@H]2CC[C@@H](C)[C@@](O)(O2)C(=O)C(=O)N2CCCC[C@H]2C(=O)O[C@H]([C@H](C)C[C@@H]2CC[C@@H](OC(=O)C(C)(CO)CO)[C@H](OC)C2)CC(=O)[C@H](C)/C=C(\C)[C@@H](O)[C@@H](OC)C(=O)[C@H](C)C[C@H](C)/C=C/C=C/C=C/1C` [Temsirolimus, 42-[3-Hydroxy-2-(hydroxymethyl)-2-methylpropanoate]-rapamycin]: the Conclusion entry (in test [1]; in test [2]; with RPMI-8402 leukemic cells [3]) was “Synergistic (>0 implies synergistic interaction)” each time. Also, the ZIP score in test [1] was 23.04; in test [2] it was 23.81; with RPMI-8402 leukemic cells [3] it was 18.03.
Take `Cn1c(=O)n(-c2ccc(C(C)(C)C#N)cc2)c2c3cc(-c4cnc5ccccc5c4)ccc3ncc21` [BEZ235, 4-[2,3-dihydro-3-methyl-2-oxo-8-(3-quinolinyl)-1H-imidazo[4,5-c]quinolin-1-yl]-a,a-dimethyl-benzeneacetonitrile]: the Conclusion result (in test [1]; in test [2]; in the test on RPMI-8402 leukemic cells [3]) was “Synergistic (>0 implies synergistic interaction)” throughout. In addition, the ZIP score is on record as 13.94 in test [1], 17.40 in test [2] and 7.20 in the test on RPMI-8402 leukemic cells [3].
With `C[C@@H](Oc1cc(-c2cnn(C3CCNCC3)c2)cnc1N)c1c(Cl)ccc(F)c1Cl` [Crizotinib, 3-[(1R)-1-(2,6-dichloro-3-fluorophenyl)ethoxy]-5-[1-(4-piperidinyl)-1H-pyrazol-4-yl]-2-pyridinamine], in test [1], the Conclusion result is “No (0 implies no interaction)” and the ZIP score came to 0.10. In the test with RPMI-8402 leukemic cells [3], the Conclusion entry is “Synergistic (>0 implies synergistic interaction)” and the ZIP score was 2.38.
For `COc1cc2nccc(Oc3ccc(NC(=O)NC4CC4)c(Cl)c3)c2cc1C(N)=O` [Lenvatinib, 4-(3-chloro-4-(3-cyclopropylureido)phenoxy)-7-methoxyquinoline-6-carboxamide], the Conclusion result (in test [4]; in the test on MV-4-11 leukemic cells; with RPMI-8402 leukemic cells [5]) was “Synergistic (>0 implies synergistic interaction)” throughout. In addition, the ZIP score came to 11.2 in test [4], 5.9 with MV-4-11 leukemic cells and 41.4 in the test on RPMI-8402 leukemic cells [5].
Turning to `CC(C)c1cc(CNc2nc(Nc3cc(C4CC4)[nH]n3)cc(N3CCN(C)CC3)n2)on1` [XL228, N4-(5-cyclopropyl-1H-pyrazol-3-yl)-N2-[[3-(1-methylethyl)-5-isoxazolyl]methyl]-6-(4-methyl-1-piperazinyl)-2,4-pyrimidinediamine], the Conclusion entry (in test [1]; in test [2]; in the test with RPMI-8402 leukemic cells [3]) was “Synergistic (>0 implies synergistic interaction)” throughout. Moreover, the ZIP score came to 23.67 in test [1], 21.86 in test [2] and 15.0 in the test with RPMI-8402 leukemic cells [3].
For `NC1(c2ccc(-c3nc4ccn5c(=O)[nH]nc5c4cc3-c3ccccc3)cc2)CCC1` [MK-2206, 8-[4-(1-aminocyclobutyl)phenyl]-9-phenyl-1,2,4-triazolo[3,4-f][1,6]naphthyridin-3 (2H)-one, dihydrochloride], the Conclusion entry (in test [1]; in test [2]; with RPMI-8402 leukemic cells [3]) was “Synergistic (>0 implies synergistic interaction)” each time. Also, the ZIP score worked out at 14.89 in test [1], 16.97 in test [2] and 8.51 in the test on RPMI-8402 leukemic cells [3].
For the compound `CC#CC(=O)N1CCC[C@H]1c1nc(-c2ccc(C(=O)Nc3ccccn3)cc2)c2c(N)nccn12` [Acalabrutinib, 4-[8-amino-3-[(2S)-1-(1-oxo-2-butyn-1-yl)-2-pyrrolidinyl]imidazo[1,5-a]pyrazin-1-yl]-N-2-pyridinyl-benzamide], the Conclusion result (in test [1]; in test [2]; in the test on RPMI-8402 leukemic cells [3]) was “Synergistic (>0 implies synergistic interaction)” in each case. Moreover, the figures for the ZIP score (in test [1]; in test [2]; in the test on RPMI-8402 leukemic cells [3]) were 3.33, 6.86 and 0.70, respectively.
For the compound `O=C(Nc1c[nH]nc1-c1nc2cc(CN3CCOCC3)ccc2[nH]1)NC1CC1` [AT9283, N-Cyclopropyl-N′-[3-[6-(4-morpholinylmethyl)-1H-benzimidazol-2-yl]-1H-pyrazol-4-yl]-urea], the Conclusion result (in test [1]; in test [2]; in the test on RPMI-8402 leukemic cells [3]) was “Synergistic (>0 implies synergistic interaction)” each time. Also, the ZIP score in test [1] came to 12.99; in test [2], 8.38; in the test on RPMI-8402 leukemic cells [3] it was 12.40.
Consider `CNC(=O)c1ccccc1Sc1ccc2c(/C=C/c3ccccn3)n[nH]c2c1` [Axitinib, N-Methyl-2-[[3-[(E)-2-pyridin-2-ylethenyl]-1H-indazol-6-yl]sulfanyl]benzamide], for which the Conclusion result (in test [4]; in the test on MV-4-11 leukemic cells; with RPMI-8402 leukemic cells [5]) was “Synergistic (>0 implies synergistic interaction)” each time.
Take `CC[C@H](Nc1ncnc2[nH]cnc12)c1nc2cccc(F)c2c(=O)n1-c1ccccc1` [Idelalisib, 5-Fluor-3-phenyl-2-{(1S)-1-[(7H-purin-6-yl)amino]propyl}chinazolin-4 (3H)-on]: in the test with RPMI-8402 leukemic cells [3], the Conclusion result is recorded as “Synergistic (>0 implies synergistic interaction)” and the ZIP score is listed as 1.12.
